Counter-ions that a name gives are not always drawn.
These compounds were tested against T1, human GluN1/GluN2B NMDA receptors (Homo sapiens, UniProt Q05586+Q13224) (assay: Calcium flux (FLIPR) assay on cloned human NR1/GluN2B ion channels expressed in mammalian cells, standard assay). Conditions: glutamate ~EC40 and 10 μM glycine, stable cell line with Tet-On induced expression.
T1 construct: expressed in transfected cells
Type: cell-based
Description: Effects of Test Articles on Cloned Human NR1/GluN2B Ion Channels Expressed in Mammalian Cells
NMDA receptors are ion channels that are highly permeable to Ca^2+ ions, rendering it possible to monitor NMDA receptor function using cell-based calcium flux assay. In this assay, co-agonists glutamate and glycine are added to cells heterologously expressing human GluN1/GluN2B NMDA receptors to initiate cellular Ca^2+ influx. The time course of the changes in intracellular calcium is measured using a fluorescent dye and a FLIPR (Fluorometric Imaging Plate Reader) device.
Twenty four hours before measurements, the expression of the NMDA receptors in the stable cell line is induced with Tet-On inducible system in the presence of a non-selective NMDA receptor blocker. On the day of the experiment, cell culture media is carefully washed and the cells are loaded with Calcium 5 Dye Kit (Molecular Devices) in dye loading buffer containing 137 mM NaCl, 4 mM KCl, 2 mM CaCl2, 0.5 mM MgCl2 (standard assay) or 1.5 mM MgCl2 (HTS assay), 10 mM HEPES and 5 mM D-glucose; pH 7.4. After 1 h incubation at the room temperature, the dye is washed away with the assay buffer (137 mM NaCl (standard assay) or 150 mM (HTS assay), 4 mM KCl (standard assay) or 3 mM (HTS assay), 2 mM CaC2, 0.01 mM EDTA, 10 mM HEPES and 5 mM D-glucose; pH 7.4) In the FLIPR TETRA reader, various concentrations of the test compounds are added to the cells for 5 min while fluorescence is monitored to detect potential agonist activity. Next, co-agonists, glutamate and glycine are added for another 5 minutes. The concentration of glutamate corresponding to ˜EC40 (standard assay) or EC40 (HTS assay) is used to maximize the assay's signal window and ability to detect NMDA receptor antagonists and negative allosteric modulators. A saturating concentration (10 μM) of glycine is also present in the assay. A non-selective NMDA receptor antagonist, (+)MK-801 is used as a positive control for antagonist activity. The fluorescent signal in the presence of test compounds is quantified and normalized to the signal defined by the appropriate control wells.

T1 sequence (Q13224 27-1484, other chains not shown): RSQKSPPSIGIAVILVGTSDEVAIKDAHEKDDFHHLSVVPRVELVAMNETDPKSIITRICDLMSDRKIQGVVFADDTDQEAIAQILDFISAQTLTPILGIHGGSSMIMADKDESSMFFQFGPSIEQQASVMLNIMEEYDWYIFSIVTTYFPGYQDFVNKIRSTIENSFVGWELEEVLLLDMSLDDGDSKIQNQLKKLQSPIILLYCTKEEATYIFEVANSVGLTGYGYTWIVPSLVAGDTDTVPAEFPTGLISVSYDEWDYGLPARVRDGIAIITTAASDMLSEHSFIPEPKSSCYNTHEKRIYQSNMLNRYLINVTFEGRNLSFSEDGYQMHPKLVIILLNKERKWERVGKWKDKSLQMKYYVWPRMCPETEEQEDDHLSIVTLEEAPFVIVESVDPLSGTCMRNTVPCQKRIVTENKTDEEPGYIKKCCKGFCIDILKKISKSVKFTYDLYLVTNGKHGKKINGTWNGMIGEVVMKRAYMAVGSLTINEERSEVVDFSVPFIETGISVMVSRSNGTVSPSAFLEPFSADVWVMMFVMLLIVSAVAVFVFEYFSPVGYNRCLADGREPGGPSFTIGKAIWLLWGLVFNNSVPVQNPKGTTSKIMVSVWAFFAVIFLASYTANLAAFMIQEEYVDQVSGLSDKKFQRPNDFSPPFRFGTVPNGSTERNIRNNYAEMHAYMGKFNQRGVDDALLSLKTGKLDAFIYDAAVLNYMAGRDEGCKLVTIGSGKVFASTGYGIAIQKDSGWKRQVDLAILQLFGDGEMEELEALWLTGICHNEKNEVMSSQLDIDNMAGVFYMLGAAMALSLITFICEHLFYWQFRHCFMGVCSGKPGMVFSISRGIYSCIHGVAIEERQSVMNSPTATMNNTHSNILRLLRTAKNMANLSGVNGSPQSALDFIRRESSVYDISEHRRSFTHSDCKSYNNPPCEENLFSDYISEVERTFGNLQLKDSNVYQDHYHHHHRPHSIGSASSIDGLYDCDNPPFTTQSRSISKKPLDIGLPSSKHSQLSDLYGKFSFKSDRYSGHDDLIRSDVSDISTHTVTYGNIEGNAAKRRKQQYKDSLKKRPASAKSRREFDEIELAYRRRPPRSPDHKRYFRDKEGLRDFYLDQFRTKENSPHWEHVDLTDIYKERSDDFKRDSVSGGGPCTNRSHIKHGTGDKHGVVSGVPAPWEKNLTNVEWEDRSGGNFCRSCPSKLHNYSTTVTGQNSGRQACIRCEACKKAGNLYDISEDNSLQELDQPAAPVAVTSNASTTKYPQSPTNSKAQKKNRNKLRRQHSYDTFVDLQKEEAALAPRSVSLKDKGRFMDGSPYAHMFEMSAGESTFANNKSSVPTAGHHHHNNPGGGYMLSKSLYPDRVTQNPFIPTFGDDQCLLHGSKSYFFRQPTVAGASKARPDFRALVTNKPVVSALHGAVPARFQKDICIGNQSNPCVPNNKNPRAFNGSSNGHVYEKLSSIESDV

Row | SMILES | IC50
1 | Cc1cc(F)ccc1-c1cnc2cnn(CC(=O)C(C)C)c2c1 [Example 52, 1-[6-(4-Fluoro-2-methyl-phenyl)pyrazolo[4,3-b]pyridin-1-yl]-3-methyl-butan-2-one] | 90 nM
2 | Cc1cc(-c2cnc3cnn(CC(O)C4CC4)c3c2)ccc1F (racemic) [Example 101, (RS)-1-Cyclopropyl-2-[6-(4-fluoro-3-methyl-phenyl)pyrazolo[4,3-b]pyridin-1-yl]ethanol] | 167 nM
3 | Fc1ccc(-c2cnc3cnn(CC(F)(F)C4CC4)c3c2)cc1OC(F)F [Example 109, 1-(2-Cyclopropyl-2,2-difluoro-ethyl)-6-[3-(difluoromethoxy)-4-fluoro-phenyl]pyrazolo[4,3-b]pyridine] | 69 nM
4 | Cc1cc(-c2cnc3cnn(C[C@H](O)C4CC4)c3c2)ccc1F [Example 102, (R)-1-Cyclopropyl-2-[6-(4-fluoro-3-methyl-phenyl)pyrazolo[4,3-b]pyridin-1-yl]ethanol] | 109 nM
5 | CCC(F)(F)Cn1ncc2ncc(-c3ccc(F)c(OC(F)F)c3)cc21 [Example 99, 1-(2,2-Difluorobutyl)-6-[3-(difluoromethoxy)-4-fluoro-phenyl]pyrazolo[4,3-b]pyridine] | 213 nM
6 | CCC(=O)Cn1ncc2ncc(-c3ccc(F)c(C)c3)cc21 [Example 32, 1-[6-(4-Fluoro-3-methyl-phenyl)pyrazolo[4,3-b]pyridin-1-yl]butan-2-one Trifluoroacetate Salt] | 12 nM
7 | CCC(=O)Cn1ncc2ncc(-c3cccc(F)c3)cc21 [Example 29, 1-[6-(3-Fluorophenyl)pyrazolo[4,3-b]pyridin-1-yl]butan-2-one] | 28 nM
8 | O=C1NC[C@@H](Cn2ncc3ncc(-c4ccc(F)c(C(F)F)c4)cc32)O1 [Example 21, (S)-5-[[6-[3-(Difluoromethyl)-4-fluoro-phenyl]pyrazolo[4,3-b]pyridin-1-yl]methyl]oxazolidin-2-one] | 1840 nM
9 | CC(C)C(=O)Cn1ncc2ncc(-c3ccccc3)cc21 [Example 44, 3-Methyl-1-(6-phenylpyrazolo[4,3-b]pyridin-1-yl)butan-2-one] | 89 nM
10 | CN1C[C@H](Cn2ncc3ncc(-c4ccc(F)c(C(F)F)c4)cc32)OC1=O [Example 129] | 30 nM
11 | O=C(Cn1ncc2ncc(-c3ccc(F)cc3)cc21)C1CC1 [Example 59, 1-Cyclopropyl-2-[6-(4-fluorophenyl)pyrazolo[4,3-b]pyridin-1-yl]ethanone] | 13 nM
12 | CC(C)C(=O)Cn1ncc2ncc(-c3ccc(F)c(C(F)(F)F)c3)cc21 [Example 51, 1-[6-[4-Fluoro-3-(trifluoromethyl)phenyl]pyrazolo[4,3-b]pyridin-1-yl]-3-methyl-butan-2-one] | 296 nM
13 | CN1CCC(Cn2ncc3ncc(-c4ccc(F)c(C(F)F)c4)cc32)C1=O (racemic) [Example 116, (RS)-3-[[6-[3-(Difluoromethyl)-4-fluoro-phenyl]pyrazolo[4,3-b]pyridin-1-yl]methyl]-1-methyl-pyrrolidin-2-one] | 303 nM
14 | O=C(Cn1ncc2ncc(-c3cc(F)cc(F)c3)cc21)C1CC1 [Example 66, 1-Cyclopropyl-2-[6-(3,5-difluorophenyl)pyrazolo[4,3-b]pyridin-1-yl]ethanone] | 19 nM
15 | Cc1cc(-c2cnc3cnn(C[C@@H](O)C4CC4)c3c2)ccc1F [Example 103, (S)-1-Cyclopropyl-2-[6-(4-fluoro-3-methyl-phenyl)pyrazolo[4,3-b]pyridin-1-yl]ethanol] | 272 nM
16 | CCC(O)Cn1nc(F)c2ncc(-c3ccc(F)c(F)c3)cc21 (racemic) [Example 94, (RS)-1-[6-(3,4-Difluorophenyl)-3-fluoro-pyrazolo[4,3-b]pyridin-1-yl]butan-2-ol] | 965 nM
17 | O=C(Cn1ncc2ncc(-c3ccc(F)c(C(F)F)c3)cc21)c1ncc(F)cc1F [Example 141, 2-(6-(3-(Difluoromethyl)-4-fluorophenyl)-1H-pyrazolo[4,3-b]pyridin-1-yl)-1-(3,5-difluoropyridin-2-yl)ethan-1-one] | 409 nM

— patent US11161846B2, “Substituted pyrazolo[4,3-b]pyridines and their use as GluN2B receptor modulators” (JANSSEN PHARMACEUTICA NV, priority 2019, dated 2021)
